# Source: ChEMBL document CHEMBL3988442, “University of Dundee, Small-Polar-MMV Screening Library” (2021)
# Values joined by “and” are separate entries in the source; they are usually repeats but may differ in a detail not shown here. Equal entries are not always repeated.
# Legend:
# Plasmodium falciparum = test: Calibr Malaria Delayed Death Assay SOP; type: functional, organism-based; conditions: for IC50: Plasmodium falciparum
# Histidine--tRNA ligase = target: T1, Histidine--tRNA ligase (Leishmania infantum, UniProt A4I591); test: Leishmania infantum Histidine tRNA synthetase (LdHisRS); type: functional
# T1 sequence (A4I591 whole entry): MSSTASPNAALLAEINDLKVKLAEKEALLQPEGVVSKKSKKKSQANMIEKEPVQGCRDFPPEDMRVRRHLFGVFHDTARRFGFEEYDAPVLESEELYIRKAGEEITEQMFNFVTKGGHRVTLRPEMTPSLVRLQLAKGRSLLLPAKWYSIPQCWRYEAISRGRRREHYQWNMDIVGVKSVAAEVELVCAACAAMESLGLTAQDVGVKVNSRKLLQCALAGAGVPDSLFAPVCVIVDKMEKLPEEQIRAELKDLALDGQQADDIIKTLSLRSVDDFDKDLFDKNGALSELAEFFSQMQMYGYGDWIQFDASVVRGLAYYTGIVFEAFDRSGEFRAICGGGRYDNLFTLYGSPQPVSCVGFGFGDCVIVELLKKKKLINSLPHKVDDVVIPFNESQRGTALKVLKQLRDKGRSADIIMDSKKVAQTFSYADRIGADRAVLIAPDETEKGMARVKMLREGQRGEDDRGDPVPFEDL
# Schistosoma mansoni = test: High throughput screening of compounds against Schistosoma mansoni motility; type: functional; parameters: dose or concentration left out as unconfirmed
# Leishmania donovani = test: Leishmania intramacrophage assay; type: functional, organism-based; conditions: for IC50: Leishmania donovani
# [1] = microbe, parasite or virus in culture; conditions: Mycobacterium tuberculosis, 72 h, read-out: pIC50 (converted)
# [2] = microbe, parasite or virus in culture; conditions: Mycobacterium tuberculosis, 96 h, read-out: pIC50 (converted)
# [3] = In vitro enzyme assay to detect hydrolysis of chlorophenol red-beta-D-[…] directly proportional to the number of Toxoplasma stably expressing beta-galactosidase; type: functional, organism-based, Toxoplasma gondii; conditions: for IC50: Toxoplasma gondii
# ClpP1P2 = ClpP1P2 (Mycobacterium tuberculosis (strain ATCC 25618 / H37Rv), UniProt P9WPC3+P9WPC5); test: in vitro assay to detect presence of AMC directly proportional to the activity of ClpP1P2. GHDDI collaboration.; type: functional
# Tryptophan--tRNA ligase = Tryptophan--tRNA ligase (Mycobacterium tuberculosis (strain ATCC 25618 / H37Rv), UniProt P9WFT3); test: Biochemical assay for Mt-TrpRS; type: functional
structure (smiles),measurement,setting,value
COc1ccccc1C1(CNCc2cccc(C#N)c2)CCOCC1,pIC50,Plasmodium falciparum,5.883
same,IC50,Plasmodium falciparum,1.49 µM
same,IC50,Histidine--tRNA ligase,70.8 µM and 65.6 µM
Cc1cc(NC(=O)CN2CCc3nn(C)c(=O)cc3C2)on1,IC50,Histidine--tRNA ligase,71.2 µM and 54.8 µM
same,Percent Effect,Schistosoma mansoni,-32.24%
Cc1sc2nc(CCN)nc(N3CCS(=O)(=O)CC3)c2c1C,IC50,Leishmania donovani,> 50.1 µM
CCOCCN1CCN(CC(O)c2ccc(OC)cc2)CC1 (stereo not drawn),IC50,Leishmania donovani,> 50.1 µM
CC(=O)NC1CCCN(Cc2csc(-c3ncccn3)n2)C1 (stereo not drawn),IC50,Leishmania donovani,> 50.1 µM
O=C(c1c[nH]cn1)N1CCC(F)(F)C2(CCN(c3ccccn3)C2)C1 (stereo not drawn),IC50,Leishmania donovani,> 50.1 µM
CCOCCN(CCOCC)c1nc(C)nc2sccc12,IC50,Leishmania donovani,> 50.1 µM
CC1CCCN(Cc2ccnc(-c3cccnc3)n2)C1 (stereo not drawn),IC50,Leishmania donovani,> 50.1 µM
COc1cccc(CNCC2CN(C)CCO2)c1 (stereo not drawn),IC50,Leishmania donovani,> 50.1 µM
Cc1sc2nc(CCN)nc(N3CCC(N4CCCC4)CC3)c2c1C,IC50,Leishmania donovani,> 50.1 µM
c1nc(CCNc2nc(C3CC3)nc3c2CCNCC3)c[nH]1,IC50,Leishmania donovani,> 50.1 µM
CCN1CCCC(O)(c2nc(C)c(CCOc3ccccc3F)s2)CC1 (stereo not drawn),IC50,Leishmania donovani,> 50.1 µM
COCCN1CCN(c2ccc3ccc(C(=O)NC4CC4)cn23)CC1,IC50,Leishmania donovani,> 50.1 µM
Cn1ccnc1CN1CCC(F)(F)C2(CCN(c3cnccn3)C2)C1 (stereo not drawn),IC50,Leishmania donovani,> 50.1 µM
O=C(Nc1nccs1)c1csc(NC2CCCC2)n1,IC50,[1],28.4 µM
same,IC50,[2],34.5 µM
same,IC50,Histidine--tRNA ligase,30.3 µM and 43.9 µM
same,IC50,[3],4.36 µM
CC(=O)N1CCCN(Cc2csc(-c3ncccn3)n2)CC1,IC50,Leishmania donovani,> 50.1 µM
Cc1ccc(CN2CCC3(CC2)CC(N2CCN(C)CC2)CO3)s1 (stereo not drawn),IC50,Leishmania donovani,> 50.1 µM
COCc1nc(CNc2cccc(-c3ncon3)c2)cs1,IC50,Leishmania donovani,> 50.1 µM
CC(C)C[C@H](N)C(=O)N1CC2(CCNCC2)c2cc(Cl)ccc21.Cl.Cl,pIC50,Leishmania donovani,4.898 and 5.256
Cc1cc(C)n(CC(=O)N2C[C@@H]3CC[C@H](C2)N(CC2CCC2)C3)c(=O)n1,IC50,Histidine--tRNA ligase,16.8 µM and 12 µM
same,IC50,ClpP1P2,> 100 µM
Cc1ccc2c(n1)N(Cc1cccnc1)CCN(Cc1cnn(C)c1)C2,IC50,Leishmania donovani,> 50.1 µM
Cc1sc2nc(CCN)nc(N3CCN(S(C)(=O)=O)CC3)c2c1C,IC50,Leishmania donovani,> 50.1 µM
CC(C)n1nnc2c(sc3nc(N4CCOCC4)c4c(c32)CCC4)c1=O,IC50,Leishmania donovani,> 50.1 µM
Cc1sc2nc(C(F)(F)F)nc(N3CCCN(C)CC3)c2c1C,IC50,Leishmania donovani,46.2 µM
Cc1ccc(-c2cc(C(F)(F)F)nc(N3CCOCC3)n2)s1,IC50,Leishmania donovani,> 50.1 µM
CC(=O)Nc1ccc2nc(CN(C)Cc3snnc3C)ccc2c1,IC50,Histidine--tRNA ligase,51.3 µM and 57.2 µM
same,IC50,ClpP1P2,> 100 µM
c1cnc(-c2nc(CN3CCCC(N4CCCC4)C3)cs2)nc1 (stereo not drawn),IC50,Leishmania donovani,> 50.1 µM
COCc1noc(CNc2nc(C3CCCC3)nc3c2CCNCC3)n1,IC50,Leishmania donovani,> 50.1 µM
O=C(C1CCC1)N1CCC(c2ncc3c(n2)CCNC3)CC1,IC50,Leishmania donovani,> 50.1 µM
CC(NCc1ccsc1)c1ccc2c(c1)NC(=O)CO2 (stereo not drawn),IC50,Leishmania donovani,> 50.1 µM
CC(=O)N1CCN(c2nc(C(F)(F)F)nc3sc(C)c(C)c23)CC1,IC50,Leishmania donovani,> 50.1 µM
c1ccc(COC2CCN(c3cncc(-n4cccn4)n3)CC2)cc1,IC50,Leishmania donovani,> 50.1 µM
CCC1CN(CC(=O)NCCN2CCCCCC2)c2ccccc2S1 (stereo not drawn),IC50,[1],44.8 µM
same,IC50,[2],> 50.1 µM
same,pIC50,Plasmodium falciparum,5.947
same,IC50,Plasmodium falciparum,1.33 µM
same,IC50,Histidine--tRNA ligase,39.1 µM and 39.7 µM
Cc1[nH]/c(=N\C(=O)c2csc(NC3CCCC3)n2)sc1C,IC50,[1],19.8 µM
same,IC50,[2],> 50.1 µM
same,IC50,Histidine--tRNA ligase,18 µM and 18.2 µM
same,pIC50,[3],5.387
same,IC50,[3],3.16 µM
Cn1nc2c(cc1=O)CN(CCc1nc3ccccc3c(=O)[nH]1)CC2,IC50,Histidine--tRNA ligase,67.7 µM and 54.2 µM
same,Percent Effect,Schistosoma mansoni,-34.74%
Clc1cc(CN2CCCN3CCCC3C2)c2ncccc2c1 (stereo not drawn),IC50,[1],8.48 µM
same,IC50,[2],12.2 µM
same,pIC50,Plasmodium falciparum,5.897
same,IC50,Plasmodium falciparum,1.3 µM
same,IC50,Histidine--tRNA ligase,26.6 µM and 21.9 µM
Cc1nccn1CCCn1cncc1-c1ccc2c(c1)CCC(C)N2C (stereo not drawn),IC50,Histidine--tRNA ligase,6.86 µM and 7.15 µM
same,IC50,ClpP1P2,> 100 µM
CCCC(O)CNc1cncc(Br)c1 (stereo not drawn),IC50,[1],> 50.1 µM
same,IC50,[2],21.7 µM
same,IC50,Histidine--tRNA ligase,> 100 µM
same,IC50,Tryptophan--tRNA ligase,> 195 µM
NC(=O)c1cnc2n1CCN(C(=O)c1ccc(Cn3cccc3)cc1)C2,IC50,Histidine--tRNA ligase,22.7 µM and 17.3 µM
same,IC50,ClpP1P2,> 100 µM
Clc1ccc(C2(CNC3=NCCN3)CCCCC2)cc1.I,pIC50,Plasmodium falciparum,6.717 and 7.044
same,IC50,Histidine--tRNA ligase,85 µM and 71.6 µM
Cn1ccc2c(-c3cc(N4CCCCC4)ncn3)ccnc21,IC50,Histidine--tRNA ligase,54.3 µM and 45.7 µM
same,IC50,ClpP1P2,> 100 µM
CC(=O)c1c(C)nn(CC(=O)Nc2ccc(Br)cc2)c1C,IC50,[1],8.6 µM
same,IC50,Histidine--tRNA ligase,6.08 µM and 7.13 µM
same,IC50,[3],7.32 µM
Brc1ccc(C2(CNCc3cc[nH]c3)CCOCC2)cc1,pIC50,Plasmodium falciparum,6.139
same,IC50,Plasmodium falciparum,0.542 µM
same,IC50,Histidine--tRNA ligase,39.5 µM and 23.5 µM
N#CCCSc1sc2c(O)cc(O)nc2c1C#N,IC50,Histidine--tRNA ligase,18.7 µM and 27.5 µM
same,IC50,Tryptophan--tRNA ligase,> 195 µM
COc1ccccc1C1(CNCc2cccc(O)c2)CCOCC1,pIC50,Plasmodium falciparum,6.352
same,IC50,Plasmodium falciparum,0.31 µM
same,IC50,Histidine--tRNA ligase,1.13 µM and 1.34 µM (2×) and 1.43 µM
CCN1c2ccc(-c3cncn3CCCn3ccnc3C)cc2CC1C.Cl (stereo not drawn),IC50,[1],42.9 µM
same,IC50,[2],46.6 µM
same,IC50,Histidine--tRNA ligase,39.6 µM and 37.5 µM
same,IC50,ClpP1P2,> 100 µM
Cc1cnc2n(c1=O)CC(C(=O)Nc1cccc3cccnc13)CS2 (stereo not drawn),IC50,Histidine--tRNA ligase,78.6 µM and 68.6 µM
same,Percent Effect,Schistosoma mansoni,-85.49%
CCn1nc2c(cc1=O)CN(c1ncnc3sccc13)CC2,IC50,Histidine--tRNA ligase,15.5 µM and 11.5 µM
same,IC50,[3],15 µM
c1ccc(-c2cc(CN3C[C@@H]4CC[C@H](C3)N(CC3CCC3)C4)on2)cc1,IC50,[1],8.42 µM
same,IC50,[2],13.3 µM
same,IC50,Histidine--tRNA ligase,32.5 µM and 36.9 µM
Cc1nc(CN2CCc3nc(N4CCCC4)nc(NC(C)C)c3C2)cs1,IC50,[1],41.6 µM
same,IC50,[2],25.4 µM
same,IC50,Histidine--tRNA ligase,14.7 µM and 12.1 µM
Cc1cccnc1[C@H](C)Nc1nc(-c2cccnc2)nc2c1CNC2,pIC50,Plasmodium falciparum,5.936
same,IC50,Plasmodium falciparum,0.951 µM
same,IC50,Histidine--tRNA ligase,36.4 µM and 22.4 µM
COc1ccc(NC(=O)Cn2nc(C)c(C(C)=O)c2C)cc1,IC50,[1],22.1 µM
same,IC50,[2],19 µM
same,pIC50,Plasmodium falciparum,6.455
same,IC50,Plasmodium falciparum,0.421 µM
same,IC50,Histidine--tRNA ligase,17.2 µM and 14 µM
same,IC50,[3],3.61 µM
COCC(O)CNc1cncc(Br)c1 (stereo not drawn),IC50,Histidine--tRNA ligase,> 100 µM
same,IC50,Tryptophan--tRNA ligase,> 195 µM
CNc1cc2c(nn1)CCN(C(=O)c1coc(Br)c1)C2,IC50,Histidine--tRNA ligase,51.3 µM and 66.4 µM
same,IC50,ClpP1P2,> 100 µM
c1ccc2sc(N3CCCN(c4ncnc5c4CCNC5)CC3)nc2c1,pIC50,Plasmodium falciparum,5.791
same,IC50,Plasmodium falciparum,1.56 µM
same,IC50,Histidine--tRNA ligase,76.9 µM and 73.9 µM
COc1ccccc1C(=O)NC(c1ccccn1)[C@H]1CC[C@H](CN)CC1 (stereo partly drawn),IC50,Histidine--tRNA ligase,9.74 µM and 9.59 µM
same,IC50,Tryptophan--tRNA ligase,> 195 µM
Cn1cc(-c2c(C#N)c(N)nc3c2CCc2[nH]ccc2-3)cn1,IC50,Histidine--tRNA ligase,11.2 µM and 16.9 µM
same,IC50,ClpP1P2,> 100 µM
CC(C)c1nc(CC(=O)Nc2nc(CN3CCCCCC3)cs2)cs1,IC50,[1],23.2 µM
same,IC50,[2],21.2 µM
same,IC50,Histidine--tRNA ligase,39.8 µM and 33.5 µM
Cc1c(CN2CCOCC2)c(O)n(CCO)c(=O)c1C#N,IC50,Histidine--tRNA ligase,35.3 µM and 35.6 µM
same,IC50,Tryptophan--tRNA ligase,> 195 µM
CCC[C@@H]1CN(C(=O)c2cc3ccccc3cc2O)C[C@H]1N(C)C,IC50,Histidine--tRNA ligase,38 µM and 45 µM
same,IC50,ClpP1P2,> 100 µM
Cn1cc(-c2c(C#N)c(N)nc3c2CCc2[nH]ccc2-3)cc1C#N,IC50,Histidine--tRNA ligase,28 µM and 21.7 µM
same,IC50,ClpP1P2,> 100 µM
NC(=O)C1=NC2=NS(=O)(=O)c3ccccc3N2N1Cc1ccc(Cl)cc1,IC50,[1],45.4 µM
same,IC50,[2],26.4 µM
same,IC50,Histidine--tRNA ligase,62.9 µM and 43.4 µM
CCn1nc2c(cc1=O)CN(c1ncnc3ccsc13)CC2,IC50,Histidine--tRNA ligase,54.3 µM and 39.8 µM
same,IC50,[3],11.2 µM
O=C(Cn1c(-c2ccco2)cc2cccnc21)N1CCCC1,IC50,Histidine--tRNA ligase,21.5 µM and 27.9 µM
same,IC50,ClpP1P2,> 100 µM
c1ccc2c(c1)CCN(c1nc(-c3ccncc3)nc3c1CCNC3)C2,IC50,[1],49.7 µM
same,IC50,[2],> 50.1 µM
same,IC50,Histidine--tRNA ligase,9.69 µM and 11.1 µM
